Each structure is given as a SMILES string.

For the first assay, the target named is sigma receptor. The experiment in a line: Radioreceptor assay: sigma receptor, displacement of [^3 H]-3-(+)-PPP. The settings on record: units ± SEM; rat brain crude membranes; 2 nM [^3 H]-(+)-3-PPP; 1 hr incubation at room temperature; pH 7.4; read-out: Ki apparent. The format is binding, male Sprague-Dawley rats. The method, then: To determine the effects of the compounds in a sigma receptor assay, crude membrane preparations were prepared as follows. Brains from male Sprague-Dawley rats were homogenized in 10 volumes (wt/vol) of 0.32M sucrose, using a Polytron grinder. The homogenate was centrifuged at 900×G for 10 minutes at 4° C. The supernatant was collected and centrifuged at 22,000×g for 20 minutes at 4° C. The pellet was resuspended in 10 volumes of 50 mM Tris/HCl buffer (pH 7.4) and centrifuged at 22,000×g for 20 minutes at 4° C. The pellet was resuspended in 5 mM Tris/HCl buffer (pH 7.4) to give a final concentration of 250 mg/ml of the crude material. Incubation tubes were prepared in triplicate and contained 0.1 ml of tissue suspension, 2 nM of [^3 H]-(+)-1-propyl-3-(3-hydroxyphenyl)piperidine [^3 H]-3-(+)-PPP, and varying concentrations of the displacing ligand (0.1-1,000 nM) in a final volume of 0.5 ml. After a 1 hr incubation at room temperature, the contents of the test tubes were filtered through GS filter paper which had been presoaked for at least 2 hours in 0.05% polyethyleneimine. The test tubes were rinsed three times with Tris/HCl buffer. Radioactivity on the filters was determined using liquid scintillation spectrometry and inhibition curves were calculated according to the method of Cheng and Prusoff [Biochem. Pharmacol., 22, 3099-3108 (1973)].
Consider `c1ccc2c(c1)C1CCC2C(N2CCCCC2)CC1` (stereo not drawn) [Compound No. 3, endo-1-(2-Benzobicyclo[3.2.2]nonenyl)piperidine], for which the Ki worked out at 150 ± 20 nM. Still for that read-out and setting: the same measure for `CN1CCN(C2CCC3CCC2c2ccccc23)CC1` (stereo not drawn) [Compound No. 5]: 16000 ± 4000 nM. Consider `c1ccc2c(c1)C1CCC2C(N2CCCCC2)CC1` (stereo not drawn) [Compound No. 1, exo- and endo-1-(2-Benzobicyclo[3.2.2]nonenyl)piperidine], for which the Ki amounted to 6 ± 1 nM. The same measure, in the same setting: the same measure for `OCCN1CCN(C2CCC3CCC2c2ccccc23)CC1` (stereo not drawn) [Compound No. 4, endo- and exo-1-(2-Benzobicyclo[3.2.2]nonenyl)-4-(2-hydroxyethyl)piperazine]: 305 ± 20 nM. The same measure, in the same setting: next, `c1ccc2c(c1)C1CCC2C(N2CCCCC2)CC1` (stereo not drawn) [Compound No. 2, exo-1-(2-Benzobicyclo[3.2.2]nonenyl)piperidine]: 10 ± 2 nM.

Test system in the next assay: not listed separately
The experiment in a line: Blockade of agonist (N-allylnormetazocine)-induced stereotyped behavior and ataxia. Type of assay: in vivo. To be noted: 1 mg/kg i.p. test compound; 15 mg/kg i.p. N-allylnormetazocine. Here is the method: Compounds of the invention were evaluated for their ability to block the effects of N-allylnormetazocine on the induction of stereotyped behavior and ataxia. To test for antagonism, drugs are administered at varying times before i.p. administration of 15 mg/kg of N-allylnormetazocine. Behavioral and ataxia ratings are taken at 2.5 minutes, 5 minutes, and every 5 minutes thereafter until the animal returns to control behavior. […] The lowest dose of the test compound which is capable of blocking the stereotyped behavior and ataxia induced by N-allylnormetazocine was determined.
For the molecule `c1ccc2c(c1)C1CCC2C(N2CCCCC2)CC1` (stereo not drawn) [Compound No. 1, exo- and endo-1-(2-Benzobicyclo[3.2.2]nonenyl)piperidine], the “block of N-allylnormetazocine-induced stereotyped behavior” value is “fully blocked”.

The record behind these values is US5098916A, “Propanobicyclic amine derivatives for CNS disorders” (G. D. Searle & Co., priority 1990, dated 1992).
